Laboratory results: publication PMC5977504, “Mucin architecture behind the immune response: design, evaluation and conformational analysis of an antitumor vaccine derived from an unnatural MUC1 fragment” (Chemical Science, 2015)

Assay: Degradation studies with human plasma (20% human serum)
Assay type: in vitro ADME
Settings: 20% human serum (from human male AB plasma) in water, 37 °C, glycopeptide 0.5 mg·mL-1, sampled every hour, UPLC-micrOTOF-Q
Description: We examined then the stability of the unnatural MUC1 derivative in human plasma. To this end, we synthesized glycopeptides APDThr(α-D-GalNAc)RP and APDMeSer(α-D-GalNAc)RP (ESI ^†). The degradation of the glycopeptide containing threonine was faster (around 1.8-fold) compared to the unnatural compound. […]
an r−6 averaging. The equilibrium distance range was set to rexp − 0.2 Å ≤ rexp ≤ rexp + 0.2 Å.
Trajectories were run at 298 K, with a decay constant of 2000 ps and a time step of 1 fs.
The force constants rk2 and rk3 used in each case were 10 kcal·mol−1·Å−2. The overall simulation length for the simulations was 20 ns. The coordinates were saved each 1 ps, thus, obtaining MD trajectories of 20000 frames each. A convergence within the equilibrium distance range was obtained in the simulations. The analysis of the MD-tar trajectories has been carried out with the cpptraj modules of AMBER 12.
Degradation studies with human plasma.
Commercially available serum from human male AB plasma was used. […] Degradation of the peptides was determined every hour by using UPLC-micrOTOF-Q (column: ACQUITY UPLC BEH C18 1,7; diameter: 2.1 mm and length: 100 mm), eluting a mixture of 5 µL of the glycopeptide-serum solution in 795 µL of water and employing an isocratic method (70% H2O, 30% acetonitrile, temperature: […]

CC(=O)N[C@H]1[C@@H](O[C@H](C)[C@H](NC(=O)[C@H](CC(=O)O)NC(=O)[C@@H]2CCCN2C(=O)[C@H](C)N)C(=O)N[C@@H](CCCNC(=N)N)C(=O)N2CCC[C@H]2C(N)=O)O[C@H](CO)[C@H](O)[C@@H]1O [APDThr(α-D-GalNAc)RP]
degradation, faster compared to the unnatural compound APDMeSer(α-D-GalNAc)RP: around 1.8 fold
